The values below are quoted from earlier work in US8476252B2, “Pharmaceutical emulsion compositions comprising progestogen” (Besins Healthcare Luxembourg SARL, priority 2010, dated 2013).

The subject of this series is TBI patients. The conditions noted are these: Xiao et al 2008, Wright et al 2007.

Take `CC(=O)[C@H]1CC[C@H]2[C@@H]3CCC4=CC(=O)CC[C@]4(C)[C@H]3CC[C@]12C` [progesterone, pregn-4-ene-3,20-dione]: the Safety and tolerability result (TBI patients) is “safe and well tolerated”. In addition, under “administration of progesterone to TBI patients”, the Mortality result is reported as “decreased mortality”.
